Source: US8202855B2, “Substituted beta-lactams” (Allergan, Inc, priority 2008, dated 2012)

Test system: lashes and adjacent hairs of patients having glaucoma
Assay: Observation of lashes in glaucoma patients treated in one eye
Type: in vivo
Conditions: glaucoma patients treated in only one eye
Text: In the course of treating patients having glaucoma, treatment may only be appropriate in one eye. […] The lash appearance on the lids of the treated eyes would have appeared quite attractive if it represented a bilateral phenomenon. As a result of its asymmetric nature, the long lashes on one side could be construed as disturbing from a cosmetic standpoint. A systemic examination was preformed as a result of the asymmetric phenomenon. It soon became apparent that this altered appearance was not an isolated finding. […] Definite differences could be identified to varying degrees in the lashes and adjacent hairs of all patients who were taking the drug on a unilateral basis for longer than 6 months.
The changes in the lashes were apparent on gross inspection in several patients once attention was focused on the issue. In those with light colored hair and lashes, the differences were only seen easily with the aid of the high magnification and lighting capabilities of the slit lamp biomicroscope. In the course of glaucoma follow-up examination, attention is generally immediately focused on the eye itself. As a result of the high power magnification needed only one eye is seen at a time and the eye is seen at a high enough power that the lashes are not in focus. […]

CCNC(=O)CCC/C=C\C[C@@H]1[C@@H](/C=C/[C@@H](O)CCc2ccccc2)[C@H](O)C[C@@H]1O [bimatoprost]
lash appearance in treated eye versus non-treated eye: longer, thicker, and fuller in the treated eye than in the non-treated eye
